Data as given in patent publication US12421254B2, “KRAS modulators and uses thereof” (Quanta Therapeutics, Inc., priority 2023, dated 2025).

Columns and labels:
[1] = molecular target: GST-tagged KRAS-G12D (2-169) (Homo sapiens, UniProt P01116, G12D); assay: Nucleotide exchange assay (NEA), SOS-mediated, HTRF, KRAS G12D; assay type: biochemical; conditions: Table 4; IC50 extracted at 30 min; 20 nM SOScat; read-out: NEA G12D IC50
How it was run: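 Compound preincubated 1 h at RT with 0.25 nM GST-KRAS-G12D (2-169) and anti-GST Tb donor, then 20 nM SOS1cat (564-1049) and 150 nM GTP-DY-647P1 added; pH 7.3 HEPES buffer with MgCl2 and DTT. HTRF monitored at RT; % inhibition versus DMSO and no-SOS blank, 4-parameter IC50 taken at 30 min.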

[2] = system: phospho-ERK in GP2D (KRAS-G12D) cells; assay: pERK In Cell Western (ICW) assay (Method B), GP2D; assay type: cell-based
How it was run: (§1)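 Cells were seeded at 5,000/well (AGS) or 10,000/well (GP2D, SW620), grown overnight, then treated 3 h at 37 °C with a ½-log 9-point compound dilution. Fixed cells were stained for phospho-ERK with DRAQ5 as DNA counterstain; pERK/DRAQ5 ratio as percent of blank control gave IC50 by 4-parameter fit.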

[3] = system: phospho-ERK in SW620 (KRAS-G12V) cells; assay: pERK In Cell Western (ICW) assay (Method B), SW620; assay type: cell-based
How it was run: as §1

[4] = molecular target: GST-tagged KRAS-G12V (2-169) (Homo sapiens, UniProt P01116, G12V); assay: Nucleotide exchange assay (NEA), SOS-mediated, HTRF, KRAS G12V; assay type: biochemical; conditions: Table 4; IC50 extracted at 90 min; 80 nM SOS
How it was run: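 GST-KRAS-G12V (2-169), 0.25 nM, pre-incubated 1 h at RT with compound, then SOS1cat (564-1049) 80 nM and GTP-DY-647P1 150 nM added in HEPES pH 7.3 buffer with MgCl2 and DTT. HTRF via anti-GST Tb cryptate read over 90 min; IC50 from 4-parameter fit at 90 min, blanked to no-SOS reactions.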

[5] = Homo sapiens, SW-620, 3 h, Table 4

GST-tagged KRAS-G12V (2-169), sequence (P01116 2-169 isoform P01116-2 G12V): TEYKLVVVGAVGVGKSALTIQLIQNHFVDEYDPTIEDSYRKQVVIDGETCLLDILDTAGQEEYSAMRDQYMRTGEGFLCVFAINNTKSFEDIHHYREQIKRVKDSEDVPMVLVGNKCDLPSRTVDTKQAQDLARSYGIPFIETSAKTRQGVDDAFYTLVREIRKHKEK
GST-tagged KRAS-G12D (2-169), sequence (P01116 2-169 isoform P01116-2 G12D): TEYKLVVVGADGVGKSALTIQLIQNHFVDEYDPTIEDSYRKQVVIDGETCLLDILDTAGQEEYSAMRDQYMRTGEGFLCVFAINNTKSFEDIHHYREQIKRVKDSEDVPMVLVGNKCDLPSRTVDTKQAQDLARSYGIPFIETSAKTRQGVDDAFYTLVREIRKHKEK

Structure (SMILES) | IC50 [1] | IC50 ([2]; GP2d, 3 h, Table 4) | IC50 [3, 5] | IC50 [4] | IC50 ([2]; Table 4, 3 hours) | IC50 ([3]; Table 4, 3 hours)
CC1(O)CC(F)CN(c2nc(OCC3(CN4CCOCC4)CC3)nc(N3CC4(CCc5sc(N)c(C#N)c54)C3)n2)C1 (stereo not shown) [Compound 93, 2′-amino-1-(4-(5-fluoro-3-hydroxy-3-methylpiperidin-1-yl)-6-((1-(morpholinomethyl)cyclopropyl)methoxy)-1,3,5-triazin-2-yl)-5′,6′-dihydrospiro[azetidine-3,4′-cyclopenta[b]thiophene]-3′-carbonitrile] | < 10 nM | 10 to 100 nM | 10 to 100 nM | < 10 nM | – | –
N#Cc1c(N)sc2c1C1(CC2)CN(c2nc(OCC3(CN4CCOCC4)CC3)nc(N3CCCC(O)(C(F)F)C3)n2)C1 (stereo not shown) [Compound 106, 2-amino-1′-[4-[3-(difluoromethyl)-3-hydroxy-1-piperidyl]-6-[[1-(morpholinomethyl)cyclopropyl]methoxy]-1,3,5-triazin-2-yl]spiro[5,6-dihydrocyclopenta[b]thiophene-4,3′-azetidine]-3-carbonitrile] | 10 to 100 nM | 100 to 1000 nM | 1000 to 20000 nM | 10 to 100 nM | – | –
CN(C)CC1(COc2nc(N3CC4(C3)SCc3sc(N)c(C#N)c34)nc(N3C[C@@H](F)C[C@@](C)(O)C3)n2)CC1(F)F (stereo partly drawn) [Compound 153, 2-amino-1′-[4-[[1-[(dimethylamino)methyl]-2,2-difluoro-cyclopropyl]methoxy]-6-[(3R,5S)-5-fluoro-3-hydroxy-3-methyl-1-piperidyl]-1,3,5-triazin-2-yl]spiro[6H-thieno[3,4-b]thiophene-4,3′-azetidine]-3-carbonitrile] | < 10 nM | < 10 nM | 10 to 100 nM | < 10 nM | – | –
N#Cc1c(N)sc2c1C1(CC2)CN(c2nc(OC[C@@]34CCCN3C[C@H](F)C4)nc(N3CCC[C@@H](O)[C@@H](O)C3)n2)C1 [Compound 81, 2-amino-1′-[4-[(3S,4R)-3,4-dihydroxyazepan-1-yl]-6-[[(2R,8S)-2-fluoro-1,2,3,5,6,7-hexahydropyrrolizin-8-yl]methoxy]-1,3,5-triazin-2-yl]spiro[5,6-dihydrocyclopenta[b]thiophene-4,3′-azetidine]-3-carbonitrile; 2,2,2-trifluoroacetic acid] | < 10 nM | 100 to 1000 nM | 1000 to 20000 nM | < 10 nM | – | –
CCN(c1nc(OC[C@@]23CCCN2C[C@H](F)C3)nc(N2CC3(C2)SCc2sc(N)c(C#N)c23)n1)C(C)c1nccnc1N (single isomer, unassigned) [Compound 168B, 2-amino-1′-[4-[[(1*)-1-(3-aminopyrazin-2-yl)ethyl]-ethyl-amino]-6-[[(2R,8S)-2-fluoro-1,2,3,5,6,7-hexahydropyrrolizin-8-yl]methoxy]-1,3,5-triazin-2-yl]spiro[6H-thieno[3,4-b]thiophene-4,3′-azetidine]-3-carbonitrile] | 10 to 100 nM | – | – | < 10 nM | 100 to 1000 nM | 10 to 100 nM
N#Cc1c(N)sc2c1C1(CC2)CN(c2nc(OC[C@@]34CCCN3C[C@H](F)C4)nc(N3CCCOC[C@H]3CO)n2)C1 [Compound 69, 2-amino-1′-[4-[[(2R,8S)-2-fluoro-1,2,3,5,6,7-hexahydropyrrolizin-8-yl]methoxy]-6-[(3R)-3-(hydroxymethyl)-1,4-oxazepan-4-yl]-1,3,5-triazin-2-yl]spiro[5,6-dihydrocyclopenta[b]thiophene-4,3′-azetidine]-3-carbonitrile] | 10 to 100 nM | 1000 to 20000 nM | 1000 to 20000 nM | 10 to 100 nM | – | –
CCN(c1nc(OC[C@@H]2CC[C@H]3CN(C)CCN23)nc(N2CC3(C2)SCc2sc(N)c(C#N)c23)n1)[C@H](C)c1cccnc1N (mixture of isomers) [Compound 219, 1′-[4-[[(6SR,8aSR)-2-methyl-3,4,6,7,8,8a-hexahydro-1H-pyrrolo[1,2-a]pyrazin-6-yl]methoxy]-6-[[(1R)-1-(2-amino-3-pyridyl)ethyl]-ethyl-amino]-1,3,5-triazin-2-yl]-2-amino-spiro[6H-thieno[3,4-b]thiophene-4,3′-azetidine]-3-carbonitrile] | < 10 nM | 100 to 1000 nM | 10 to 100 nM | < 10 nM | – | –
